Measured values as given in patent US20230286973A1, “PROTEIN SECRETION INHIBITORS” (KEZAR LIFE SCIENCES, priority 2020, published 2023).
pEC50, pIC50: −log10 of the molar value. Like-named read-outs stand apart in the source and are kept apart here.

Key:
[1] = system: TNFα-FL/Gaussia Luciferase; assay: Dox Induced TNFα-FL-Gluc Assay; type: cell-based; conditions: for pIC50: 24 hr Dox induction, 293FRT/TO cells, read-out: 24 hr Dox Inducible TNFaFLGluc 293FRT/TO: Mean IC50; for 24 hr Dox Inducible TNFaFLGluc 293FRT/TO: TNF/PD1: ratio of TNFaFLGluc IC50 to PD1ssGluc IC50
Outline: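 Flp-In 293 T-REx cells stably carrying doxycycline-inducible full-length TNFα (aa 1-233) fused to Gaussia luciferase. Plated the day before, then treated with compound dilutions in doxycycline-containing medium at 37° C, 5% CO2.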

[2] = Liver Microsome Stability Assay (mouse); conditions: mouse liver microsomes, with NADPH, 1.0 uM compound
Protocol: (§1) Stability of a compound was assessed in the presence of liver microsomes from various sources—mouse, rat, monkey and human liver microsomes. 1.0 uM compound, 0.4% DMSO in 0.1 M Potassium Phosphate with 1.0 mg/mL liver microsomes, were incubated at 37° C. with or without 1 mM NADPH. The samples were quenched at 0, and 30 minutes.

[3] = Liver Microsome Stability Assay (human); conditions: human liver microsomes, with NADPH, 1.0 uM compound
Protocol: as §1

[4] = system: HER3-ss+4aa/Gaussia Luciferase; assay: Dox-Induced Her3-ss-Gluc Assay; type: cell-based; conditions: 24 hr Dox induction, 293FRT/TO cells, read-out: 24 hr Dox Inducible Her3(ss + 4)Gluc 293FRT/TO: Mean IC50
Outline: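 Stable Flp-In 293 T-REx cells carried a doxycycline-inducible HER3 signal sequence (+4 aa) fused to Gaussia luciferase. Cells were plated the day before the assay. Compound dilutions in DMSO/media containing doxycycline were then added, and plates were incubated at 37 °C, 5% CO2.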

[5] = system: IL-2-FL/Gaussia Luciferase; assay: Dox Induced IL2-FL-Gluc Assay; type: cell-based; conditions: for pIC50: 24 hr Dox induction, 293FRT/TO cells, read-out: 24 hr Dox Inducible IL2FLGluc 293FRT/TO: Mean IC50; for 24 hr Dox Inducible IL2FLGluc 293FRT/TO: IL2/PD1: ratio of IL2FLGluc IC50 to PD1ssGluc IC50
Outline: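 Stable Flp-In 293 T-REx cells carrying doxycycline-inducible full-length IL-2 (aa 1-153) fused to Gaussia luciferase, plated the day before assay. Compound dilutions added in medium containing doxycycline, incubated at 37 °C, 5% CO2. Undefined stereocentres mean data refer to stereoisomer mixtures.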

[6] = Liver Microsome Stability Assay (rat); conditions: rat liver microsomes, with NADPH, 1.0 uM compound
Protocol: as §1

[7] = Liver Microsome Stability Assay (monkey); conditions: monkey liver microsomes, with NADPH, 1.0 uM compound
Protocol: as §1

[8] = system: multiple myeloma cell line U266B1; assay: U266 Cell Viability Assay; type: cell-based, human; conditions: Homo sapiens, U-266, 48 h, U266B1 cells, Celltiter-Glo
Outline: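 U266B1 multiple myeloma cells in RPMI 1640/10% FBS were treated with compound dilutions for 48 h at 37 °C, 5% CO2. Viability was measured by CellTiter-Glo luminescence; compounds drawn without stereochemistry were tested as stereoisomer mixtures.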

[9] = system: PD1-ss+10aa/Gaussia Luciferase; assay: Dox-Induced PD1-ss-Gluc Assay; type: cell-based; conditions: 24 hr Dox induction, 293FRT/TO cells, read-out: 24 hr Dox Inducible PD1ssGluc 293FRT/TO: Mean IC50
Outline: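 Flp-In 293 T-REx cells stably carrying a doxycycline-inducible Gaussia luciferase fused to the PD1 signal sequence plus 10 aa were plated the day before. Compound dilutions in DMSO/media containing doxycycline were then added and incubated at 37 °C, 5% CO2. Data for undefined stereochemistry refer to stereoisomer mixtures.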

[10] = system: multiple myeloma cell line NCI-H929; assay: H929 Cell Viability Assay; type: cell-based, human; conditions: Homo sapiens, NCI-H929, 48 h, NCI-H929 cells, Celltiter-Glo
Outline: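 NCI-H929 cells in RPMI 1640 with 10% FBS were treated with compound dilutions for 48 h at 37° C, 5% CO2. Viability was read by CellTiter-Glo luminescence. Undefined stereocentres denote stereoisomer mixtures.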

[11] = '<=>' given where both are I.A.

| SMILES | pIC50 ([1]; mean) | 24 hr Dox Inducible TNFaFLGluc 293FRT/TO: TNF/PD1 [1, 11] | Liver Microsome Stability (Multiple Species): Mouse - % Remaining after 30 min w/NADPH [2] | Liver Microsome Stability (Multiple Species): Human - % Remaining after 30 min w/NADPH [3] | pIC50 ([4]; mean) | pIC50 ([5]; mean) | 24 hr Dox Inducible IL2FLGluc 293FRT/TO: IL2/PD1 [5, 11] | Liver Microsome Stability (Multiple Species): Rat - % Remaining after 30 min w/NADPH [6] | Liver Microsome Stability (Multiple Species): Monkey - % Remaining after 30 min w/NADPH [7] | pEC50 [8] | pIC50 ([9]; mean) | pEC50 [10] | pIC50 [1] | 24 hr Dox Inducible TNFaFLGluc 293FRT/TO: TNF/PD1 [1] | pIC50 [4] | pIC50 [5] | 24 hr Dox Inducible IL2FLGluc 293FRT/TO: IL2/PD1 [5] | pIC50 [9] |
| --- | --- | --- | --- | --- | --- | --- | --- | --- | --- | --- | --- | --- | --- | --- | --- | --- | --- | --- |
| CC(CCC#N)n1cccc1C(=O)Nc1nc([C@H]2CCCN2c2ccccc2)cs1 (stereo partly drawn) [Compound C90, 1-(4-cyanobutan-2-yl)-N-(4-((R)-1-phenylpyrrolidin-2-yl)thiazol-2-yl)-1H-pyrrole-2-carboxamide] | 4.79 | 9.76 | 1.54% | 1.77% | 5.62 | 5.40 | 2.4 | 7.22% | 1.77% | < 4.60 | 5.78 | < 4.60 |  |  |  |  |  |  |
| CN(C)C(=O)CCCn1cccc1C(=O)Nc1nc([C@H]2CCCN2c2ccccc2)cs1 [Compound C61, (R)-1-(4-(dimethylamino)-4-oxobutyl)-N-(4-(1-phenylpyrrolidin-2-yl)thiazol-2-yl)-1H-pyrrole-2-carboxamide] | < 4.60 | >2.79 | 0.16% | 0.27% | 4.69 | 4.78 | 1.9 | 3.4% | 0.03% | < 4.60 | 5.05 | < 4.60 |  |  |  |  |  |  |
| CC(=O)N1CCC(Oc2ccc(N3CCC[C@@H]3c3csc(NC(=O)c4cccn4Cc4ccnc(F)c4)n3)cc2Cl)CC1 [Compound A140, (R)-N-(4-(1-(4-((1-acetylpiperidin-4-yl)oxy)-3-chlorophenyl)pyrrolidin-2-yl)thiazol-2-yl)-1-((2-fluoropyridin-4-yl)methyl)-1H-pyrrole-2-carboxamide] |  |  | 16.1% | 14% |  |  |  | 12.8% | 8.54% | < 4.60 |  | 6.38 | 6.44 | 25.9 | 8.01 | 7.47 | 2.4 | 7.86 |
| O=C(Nc1nc(CCc2coc(-c3ccccc3)n2)cs1)c1cccn1Cc1ccncc1 [Compound E12, N-(4-(2-(2-phenyloxazol-4-yl)ethyl)thiazol-2-yl)-1-(pyridin-4-ylmethyl)-1H-pyrrole-2-carboxamide] | 5.10 | 63.4 | 0.23% | 0.45% | 6.67 | 6.36 | 3.5 | 0.83% | 0.19% | < 4.60 | 6.90 | < 4.60 |  |  |  |  |  |  |
| O=C(Nc1nc([C@H]2CCCN2c2ccccc2)cs1)c1cccn1CCC1COC1 [Compound C99, (R)-1-(2-(oxetan-3-yl)ethyl)-N-(4-(1-phenylpyrrolidin-2-yl)thiazol-2-yl)-1H-pyrrole-2-carboxamide] | 4.78 | 9.72 | 19.1% | 26.1% | 5.55 | 5.27 | 3.1 | 4.12% | 0.26% | < 4.60 | 5.76 | 4.66 |  |  |  |  |  |  |
